Assay [1] deals with T1, Sterol O-acyltransferase 2 (Homo sapiens, UniProt O75908).
T1 sequence (O75908 whole entry): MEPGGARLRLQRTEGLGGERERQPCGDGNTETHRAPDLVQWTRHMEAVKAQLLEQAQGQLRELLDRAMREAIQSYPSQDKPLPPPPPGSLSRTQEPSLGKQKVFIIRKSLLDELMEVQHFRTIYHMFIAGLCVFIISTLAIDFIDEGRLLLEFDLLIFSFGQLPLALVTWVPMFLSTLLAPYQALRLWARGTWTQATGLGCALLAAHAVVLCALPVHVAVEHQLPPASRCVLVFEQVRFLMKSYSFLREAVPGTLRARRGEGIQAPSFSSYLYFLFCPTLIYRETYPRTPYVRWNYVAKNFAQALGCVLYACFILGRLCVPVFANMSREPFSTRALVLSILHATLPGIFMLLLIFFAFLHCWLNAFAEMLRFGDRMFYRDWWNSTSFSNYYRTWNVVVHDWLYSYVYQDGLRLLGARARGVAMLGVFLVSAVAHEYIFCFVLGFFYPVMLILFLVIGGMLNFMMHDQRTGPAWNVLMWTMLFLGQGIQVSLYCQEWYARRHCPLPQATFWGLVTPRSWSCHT
The assay can be described thus: Inhibition of human ACAT2 expressed in Hi5 cells. Also noted: species or system BTI-TN-5B1-4.

The subject of assay [2] is RAW. The assay can be described thus: Inhibition of LPS-induced NO production in mouse RAW 264.7 cells at 50 uM after 18 hrs. Type of assay: functional, cell-based.
Assay [3] concerns RAW. The assay is described as follows: Inhibition of LPS-induced NO production in mouse RAW 264.7 cells after 18 hrs. Format: functional, cell-based.
The test system of assay [4] is RAW. The assay is described as follows: Inhibition of LPS-induced iNOS protein expression in mouse RAW 264.7 cells at 5 uM. Type of assay: functional, cell-based.
Assay [5] deals with RAW. The assay can be described thus: Effect on cell viability in mouse RAW 264.7 cells at 50 uM by MTT method. Type of assay: functional, cell-based.
Assay [6] deals with RAW. The assay is described as follows: Inhibition of LPS-induced iNOS protein expression in mouse RAW 264.7 cells at 10 uM. Type of assay: functional, cell-based.
In assay [7] the test system is RAW. The assay is described as follows: Inhibition of LPS-induced iNOS protein expression in mouse RAW 264.7 cells at 20 uM. Format: functional, cell-based.
Assay [8] relates to RAW. The assay can be described thus: Inhibition of LPS-induced iNOS protein expression in mouse RAW 264.7 cells at 50 uM. Type of assay: functional, cell-based.
Assay [9] deals with T2, Sterol O-acyltransferase 1 (Homo sapiens, UniProt P35610).
T2 sequence (P35610 whole entry): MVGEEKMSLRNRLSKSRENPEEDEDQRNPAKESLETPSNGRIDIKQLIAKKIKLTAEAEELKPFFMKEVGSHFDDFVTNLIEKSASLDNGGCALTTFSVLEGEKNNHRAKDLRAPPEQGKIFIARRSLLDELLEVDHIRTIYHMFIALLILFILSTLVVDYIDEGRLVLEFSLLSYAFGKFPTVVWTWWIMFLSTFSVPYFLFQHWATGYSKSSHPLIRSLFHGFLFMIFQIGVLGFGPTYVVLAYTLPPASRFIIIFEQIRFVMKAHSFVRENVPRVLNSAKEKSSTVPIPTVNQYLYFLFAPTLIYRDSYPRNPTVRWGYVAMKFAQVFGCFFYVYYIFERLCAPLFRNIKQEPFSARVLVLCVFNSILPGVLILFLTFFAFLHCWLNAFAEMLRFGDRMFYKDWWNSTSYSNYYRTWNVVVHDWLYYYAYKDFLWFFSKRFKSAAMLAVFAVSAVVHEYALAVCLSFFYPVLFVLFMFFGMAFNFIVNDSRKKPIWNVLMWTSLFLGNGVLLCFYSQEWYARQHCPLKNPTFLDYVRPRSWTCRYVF
The assay is described as follows: (§1) Inhibition of human ACAT1 expressed in Hi5 cells. More on the design: species or system BTI-TN-5B1-4.

The target of assay [10] is T3, Sterol O-acyltransferase 1 (Homo sapiens) (UniProt P35610).
T3 sequence (whole entry): T2 sequence (P35610 whole entry)
Described as §1. The conditions noted are these: BTI-TN-5B1-4.

Assay [11] relates to RAW. The assay can be described thus: Effect on cell viability in mouse RAW 264.7 cells at 80 uM by MTT method. Format: functional, cell-based. On the technique in general: Formazan colour is commonly taken as a measure of viable cells.
For the next assay, the system named is Plasma. The assay is described as follows: Antioxidant activity against human plasma LDL oxidation by TBARS assay. Type of assay: functional, cell-free.

For orientation: IC50 means the concentration that inhibits the measured activity by half. A higher IC50 goes with a need for much substance.

Active and inactive are the calls of the source. No cut-off for these calls is given here.

With `C=CC(C)(C)c1c(OC)cc(O)c2c(=O)c3ccc(O)c(O)c3oc12` [ISOCUDRANIAXANTHONE B], half-maximal inhibition in [1] (IC50) required 133 µM.

Molecule `CC(C)(O)CCc1c(O)cc(O)c2c1O[C@H](c1cc3c(cc1O)OC(C)(C)C=C3)CC2=O` displayed an IC50 in [1] of 44.8 µM. Moreover, the result in the assay with RAW [2], in the assay with RAW [3], in the assay on RAW [4], in the assay with RAW [6], with RAW [7] and in the assay with RAW [8] was Active. In the assay on RAW [5], the result was inactive.

`C=CC(C)(C)c1c(OC)cc(O)c2c(=O)c3c(CC=C(C)C)c(O)c(O)cc3oc12` [CUDRAXANTHONE D] came in with an IC50 in [1] of 75.2 µM. In other words, the double-digit micromolar range.

For the molecule `C=CC(C)(C)c1c(O)cc(O)c2c(=O)c3cc(O)c4c(c3oc12)C=CC(C)(C)O4`, the results for the IC50 in [9] and in [1] were 40 µM and 28.8 µM, respectively.

Regarding `CC(C)=CCc1cc([C@@H]2CC(=O)c3c(cc(O)c(CC=C(C)C)c3O)O2)c(O)cc1O`, the outcome (in assay [10]; in the assay on RAW [11]) was inactive. This molecule came in with an IC50 in assay [1] of 89.6 µM. Also, the result in the assay on RAW [2], with RAW [3], with RAW [4], with RAW [6], with RAW [7] and in the assay with RAW [8] was Active.

In the case of `C=CC(C)(C)c1c(O)cc(O)c2c(=O)c3c(CC=C(C)C)c(OC)c(O)cc3oc12` [CUDRAXANTHONE C], the result with Plasma was inactive. Further, the IC50 in assay [1] was 19.2 µM.

With `C=CC(C)(C)c1c(O)c(CC=C(C)C)c2oc3cc(O)c(O)cc3c(=O)c2c1O` [MACLURAXANTHONE B], the IC50 in assay [1] stood at 112 µM.

Turning to `CC(C)=CCc1c(-c2ccc(O)cc2O)oc2cc3c(c(O)c2c1=O)C=CC(C)(C)O3` [CUDRAFLAVONE B], the result (in assay [10]; in the assay on RAW [11]) was inactive. In addition, the IC50 in [1] came to 41.6 µM. The Activity result with RAW [3] is “Dose-dependent effect”. Also, the outcome in the assay on RAW [4], in the assay with RAW [6], in the assay on RAW [7] and in the assay with RAW [8] was Active.

Regarding `CC1(C)C=Cc2c(cc3oc(-c4ccc(O)cc4O)cc(=O)c3c2O)O1`, the result in [10] was inactive. Also, in assay [1], the IC50 amounted to 77.6 µM.

In assay [1], `CC(C)=CCc1c(O)c(O)cc2c(=O)c3c(O)c4c(cc3oc12)OC(C)C4(C)C` (configuration not stated) [CUDRAXANTHONE M] showed an IC50 of 23.2 µM.

In assay [1], `CC(C)=CCc1c(O)cc2c(c1O)C(=O)C[C@@H](c1cc3c(cc1O)OC(C)(C)C=C3)O2` [CUDRAFLAVANONE A] yielded an IC50 of 24.8 µM.

`C=CC(C)(C)c1c(O)cc2oc3c(CC=C(C)C)c(O)c(O)cc3c(=O)c2c1O` [CUDRAXANTHONE L] returned a half-inhibitory concentration (IC50) in [1] of 74.4 µM.

(Values after ChEMBL document CHEMBL1139676, “Anti-atherosclerotic and anti-inflammatory activities of catecholic xanthones and flavonoids isolated from Cudrania tricuspidata” (Bioorg Med Chem Lett, 2006).)
